According to PMC7144209, “Design, synthesis and anticancer activity of naphthoquinone derivatives” (Journal of Enzyme Inhibition and Medicinal Chemistry, 2020):

Columns and labels:
SGC-7901 cells = experiment: Colony formation assay; type: cell-based, human; conditions: SGC-7901, 2, 4, 8 μM, 12 d
Description: SGC-7901 cells (8000/well) were seeded in 6-well plate, and treated with indicated concentrations of compound 12 (2 μM, 4 μM, 8 μM) for 12 d. The medium was removed and methanol (500 μL/well) was added to fix at the cells for 3 min. Then cells were stained with giemsa working fluid for 15 min and washed with PBS. The number of colonies was counted.

[1] = test system: Bax, Bcl-2, cleaved PARP in SGC-7901 cells; experiment: Western blot of apoptosis-related proteins; type: cell-based, human
Description: (§1) RIPA lysis buffer was used to dissociate the treated cells. Cells were lysed and the supernatant was harvested after centrifuged for 30 min. The cell proteins were separated using Sodium dodecyl sulphate-polyacrylamide gel electrophoresis, and then they were transferred to the PVDF membranes. The membranes were blocked with skimmed milk solution (5%) for 2 h, then incubated with primary antibodies (1:1000, cst) for 20 h at 4 °C. The membranes were detected by chemiluminescence reagent after probed with the secondary antibody for 1 h.
Apoptosis is one of the main methods that result in cell death. In this study, Annexin V-FITC/PI kit was used to evaluate the cell apoptosis. […] To further, investigate whether the cell apoptosis induced by title compound, Western blot analysis was used to measure the effect of the compound on apoptosis of SGC-7901 cell. As reported that apoptosis pathway could be regulated by the activation of PARP and Bcl2 family proteins[40]^,[41].

[2] = Metabolic stability assay in human liver microsomes; type: in vitro ADME
Description: To initially evaluate the stability of compound 12, we then tested the liver microsome stability of this compound. The Mean % Parent Remaining of compound 12 in metabolic stability test were 100, 95, 85, 80, and 70 at 0, 15, 30, 45, and 60 min, respectively.

U87 = experiment: MTT cell viability assay, U87 cells; type: cell-based; conditions: 48 h, n = 3
Description: (§2) MGC-803, SGC-7901, U87 and SMMC-7721 cell lines were cultured in DMEM supplemented with 10% foetal bovine serum, 100 IU/mL penicillin/streptomycin. The cells were incubated in an atmosphere containing 5% CO2 at 37 °C.
(§3) MGC-803, SGC-7901, U87 and SMMC-7721 cells were plated in 96-well plate at 7000 per well. Cells were incubated with the different concentrations of the compounds for 48 h. Subsequently, MTT (0.5 mg/mL) were used to test the cell viability, then 150 μL DMSO was added to each well after cells were incubated for 4 h and the absorbance was measured at 492 nm.

[3] = test system: GFP-LC3 in SGC-7901 cells; experiment: GFP-LC3 transfection, puncta by confocal microscopy; type: cell-based, human
Description: A plasmid GFP-tagged LC3 reporter gene (0.8 μg/500 μL) was transfected into SGC-7901 cells by Lipofectamine 2000, then cells were incubated for 24 h. After different treatments for 24 h, cells were fixed with 4% paraformaldehyde for 20 min, and washed three times with PBS. Finally, Laser confocal dishes were analysed using confocal microscope.
Another typical feature of autophagy is the accumulation of the acidic autophagic vacuoles (AVOs)[45]^,[46]. To verify the development of AVOs, Acridine Orange (AO) staining was used to examine whether the acidic vesicular organelles in SGC-7901 cells were increased. AO produces red fluorescence when it accumulates in acidic regions such as autophagy lysosomes and lysosomes and produces bright green fluorescence in the cytoplasm and the nucleus. […] GFP-LC3 indicating technique was also used to detect the autophagy at the same time. When autophagy is formed, multiple bright green fluorescent spots will form as the GFP-LC3 fusion protein can translate to autophagosome membrane. From Figure 6(C), compared to the blank control group, GFP-LC3 puncta were increased after cells treated with compound 12 (4 μM) meanwhile decreased after treated with compound 12 (4 μM) and 3-MA (500 μM).

[4] = test system: PI3K/AKT/MTOR signalling pathway; experiment: Western blot of PI3K/AKT/MTOR pathway; type: cell-based, human
Description: as §1
As a therapeutic target for cancer, the PI3K/AKT/MTOR signalling pathway participates in regulating autophagy. Consequently, Western blot experiment was used to explore the impact of compound 12 on the level of phospho-PI3K, phospho-AKT and phospho-mTOR. […] 3-MA (3-methyladenine) is also a PI3K inhibitor[57], so compound 12 (4 μM) with 3-MA (500 μM) were used to treated the cells.

MGC-803 = experiment: MTT cell viability assay, MGC-803 cells; type: cell-based; conditions: n = 3
Description: as §2, §3

[5] = test system: SGC-7901, MGC-803, SMMC-7721, U-87 cell lines; experiment: MTT anticancer activity, summary in words over the cell line panel; type: cell-based; conditions: MTT assay
Description: as §3
Compounds 1–24 were detected for anticancer activities against SGC-7901, MGC-803, SMMC-7721, U-87 cell lines in vitro by the MTT assay, and ADM was used as the positive control. From Table 1, when the phenolic hydroxyls of naphthoquinone moiety were converted to ether, the activity was missing. […] So colony formation assay of this compound (Figure 4) was used to investigate the effect of it on cell proliferation in SGC-7901 cells. The experiment examined the ability for producing colonies after the cells were treated with the cell death agents[35]^,[36].

[6] = test system: LC3-II, P62, Beclin1 in SGC-7901 cells; experiment: Western blot of autophagy-related proteins; type: cell-based, human; conditions: SGC-7901, Western blot
Description: as §1
Autophagy is a process of lysosomal degradation that can deliver the cytoplasmic cargo to the lysosome. To assess whether compound 12 could promote autophagy on SGC-7901 cells, the expressions of autophagy-related proteins were examined. Autophagy will be switched on when LC3-I was converted into LC3-II, and the level of LC3-II involves in the formation of autophagosome. Meanwhile p62 is a marker of the degradative lysosome[43]^,[44]. As shown in Figure 6(A), compound can decrease the level of P62 and increase the expressions of LC3II and Beclin1.

SGC-7901 = experiment: MTT cell viability assay, SGC-7901 cells; type: cell-based, human; conditions: n = 3
Description: as §2, §3

SMMC-7721 = experiment: MTT cell viability assay, SMMC-7721 cells; type: cell-based; conditions: Homo sapiens, 48 h, n = 3
Description: as §2, §3

[7] = SGC-7901, increasing concentration (1, 2, 4 μM)
[8] = compound 12 4 μM with 3-MA 500 μM

- Mean % Parent Remaining ([2]; 0 min): 100%
- Mean % Parent Remaining ([2]; 15 min): 95%
- Mean % Parent Remaining ([2]; 30 min): 85%
- Mean % Parent Remaining ([2]; 45 min): 80%
- Mean % Parent Remaining ([2]; 60 min): 70%
- microsomal CLint ([2]; human, read-out: calculated clearance rate): > 110 µL/min/mg
- half-life ([2]; human, read-out: half-life (t1/2)): > 1 h
- IC50 (U87): 3.8 ± 0.2 µM
- IC50 (U87; Homo sapiens, U-87 MG): 3.85 µM
- IC50 (MGC-803; 48 h): 4.1 ± 0.6 µM
- IC50 (MGC-803; Homo sapiens, MGC-803, 48 h): 4.07 µM
- IC50 (SGC-7901; 48 h): 4.1 ± 2.6 µM
- IC50 (SGC-7901; Homo sapiens, SGC-7901, 48 h): 4.09 µM
- IC50 (SMMC-7721): 20.6 ± 0.4 µM
Structure (SMILES): CC(C)=CCC(OC(=O)CCC(=O)Nc1ccc(Oc2ccccc2)cc1)C1=CC(=O)c2c(O)ccc(O)c2C1=O (stereo not shown) [Compound 12, 1-(5,8-dihydroxy-1,4-dioxo-1,4-dihydronaphthalen-2-yl)-4-methylpent-3-en-1-yl-4-oxo-4-((4-phenoxyphenyl)amino)butanoate]
- number of colonies vs control (SGC-7901 cells): decreased
- level of Bax [1, 7]: up-regulated
- level of Bcl2 [1, 7]: down-regulated
- level of cleaved PARP [1, 7]: up-regulated
- up-regulation of Bax and cl-PARP and down-regulation of Bcl-2 in the group with 3-MA ([1]; compound 12 with 3-MA 500 μM, 48 h): inhibited
- GFP-LC3 puncta vs blank control ([3]; SGC-7901, compound 12 4 μM): increased
- GFP-LC3 puncta ([3]; SGC-7901, compound 12 4 μM and 3-MA 500 μM): decreased
- expression of p-AKT ([4]; 1, 2, 4 μM, 48 h): decreased in a dose-dependent manner
- expression of p-MTOR ([4]; 1, 2, 4 μM, 48 h): decreased in a dose-dependent manner
- expression of p-PI3K ([4]; 1, 2, 4 μM, 48 h): decreased in a dose-dependent manner
- ratio of p-AKT/AKT compared with compound 12 alone [4, 8]: increased
- ratio of p-MTOR/MTOR compared with compound 12 alone [4, 8]: increased
- ratio of p-PI3K/PI3K compared with compound 12 alone [4, 8]: increased
- anticancer activity (in words) [5]: good activity
- expression of Beclin1 [6]: increase
- expression of LC3II [6]: increase
- level of P62 [6]: decrease
